# Values of other authors, collected in patent publication US10894875B2, “Films and unit dose articles comprising aversive UV-protective agents, and uses and methods related thereto” (The Procter & Gamble Company, priority 2017, dated 2021).
# Marks after values point to notes of the source that are not given here.
# Columns and labels:
# [1] = high assessed based on melting point; low = hydrolysis; based on literature
# [2] = reference quinine; lower values correspond to stronger bittering
# [3] = Scoville heat units
structure (smiles),measurement,setting,value
"CCCCCOC(=O)c1ccc(N(C)C)cc1 [Ex. 6, Padimate A, reference compound]",Thermostability,[1],Low^c
"C=C[C@H]1C[N@@]2CC[C@H]1C[C@H]2[C@H](O)c1ccnc2ccc(OC)cc12 [Ex. 7, Quinine, reference compound]",Bittering index,[2],0^d
COc1cc(CNC(=O)CCCC/C=C/C(C)C)ccc1O [capsaicin],pungency level,[3],"about 16,000,000 SHU"
